Test results reported in paper PMC3290904 (Biochemistry, 2012).

Assays:
[1] = target: AdiC (S26C mutant) (Salmonella enterica, UniProt P60066, C129S/C238S/C281S/C286S/C369S/C398S/C80S/C97S/S26C); assay: competitive inhibition of […]-arginine uptake in oriented proteoliposomes; assay type: biochemical
[2] = target: T1, AdiC (S26C mutant) (Salmonella enterica, UniProt P60066, S26C/C80S/C97S/C129S/C238S/C281S/C286S/C369S/C398S); assay: isothermal titration calorimetry; assay type: binding
T1 sequence (P60066 1-445 S26C/C80S/C97S/C129S/C238S/C281S/C286S/C369S/C398S): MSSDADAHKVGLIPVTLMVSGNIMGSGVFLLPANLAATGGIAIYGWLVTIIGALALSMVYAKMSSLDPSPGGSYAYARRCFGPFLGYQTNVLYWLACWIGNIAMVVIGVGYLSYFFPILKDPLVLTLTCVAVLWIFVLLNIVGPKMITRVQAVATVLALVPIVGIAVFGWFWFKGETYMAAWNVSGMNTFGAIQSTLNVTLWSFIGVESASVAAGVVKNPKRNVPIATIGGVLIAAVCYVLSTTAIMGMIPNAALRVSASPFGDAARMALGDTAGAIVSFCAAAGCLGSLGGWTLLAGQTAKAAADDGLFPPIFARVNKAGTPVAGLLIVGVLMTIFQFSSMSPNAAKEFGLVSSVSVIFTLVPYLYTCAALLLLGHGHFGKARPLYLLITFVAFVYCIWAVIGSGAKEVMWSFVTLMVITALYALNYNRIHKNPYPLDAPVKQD

[3] = target: AdiC (arginine-agmatine antiporter) (Salmonella enterica, UniProt P60066); assay: isothermal titration calorimetry; assay type: binding

| SMILES | Ki [1] [µM] | Kd [2] [µM] | Kd [3] [µM] |
| --- | --- | --- | --- |
| N=C(N)NCCC[C@H](N)C(N)=O [argininamide] | 1100 | – | – |
| N=C(N)NCCC[C@H](N)C(=O)O [arginine] | – | 22 ± 2 | 32 |
